According to patent US20080015198A1, “Substituted pyrazoline compounds, their preparation and use as medicaments” (LABORATORIOS DEL DR.ESTEVE S.A., priority 2004, published 2008):

Tests used:
[1] = tested on: cannabinoid receptors; assay: Mouse tetrad model, antagonistic effect against Win 55212-2; format: in vivo, mice; conditions: 5 mg/kg i.v. prior to Win 55212-2 in a dose of 1.25 mg/kg i.v.; for Antagonistic effect A: Hot-Plate test / Antagonistic effect B: Hypothermia: unit assumed
From the text: (§1) Substances with affinity for cannabinoid receptors are known to produce a wide range of pharmacological effects. It is also known that intravenous administration of a substance with affinity for cannabinoid receptors in mice produces analgesia, hypothermia, sedation and catalepsy. Individually, none of these effects can be considered as proof that a tested substance has affinity for cannabinoid-receptors, since all of these effects are common for various classes of centrally active agents. However, substances, which show all of these effects, i.e. substances that are active in this so-called tetrad model are considered to have affinity for the cannabinoid receptors. It has further been shown that cannabinoid receptor antagonists are higly effective in blocking the effects of a cannabinoid agonist in the mouse tetrad model.
(§2) The tetrad model is described, for example, in the publication of A. C. Howlett et al, International Union of Pharmacology XXVII. Classification of Cannabinoid Receptors, Pharmacol Rev 54, 161-202, 2002 and David R. Compton et al., “In-vivo Characterization of a Specific Cannabinoid Receptor Antagonist (SR141716A): Inhibition of Tetrahydrocannbinol-induced Responses and Apparent Agonist Activity”, J. Pharmacol. Exp. Ther. 277 , 2, 586-594, 1996. The corresponding parts of the description are hereby incorporated by reference.
(§3) Male NMRI mice with a weight of 20-30 g (Harlan, Barcelona, Spain) are used in all of the following experiments.
(§4) Before testing in the behavioral procedures given below, mice are acclimatized to the experimental setting. Pre-Treatment control values are determined for analgesia hot plate latency (in seconds), rectal temperature, sedation and catalepsy.
In order to determine the antagonistic activity the identical procedure is used as for the determination of the agonistic effects, but with the difference that the substance to be evaluated for its antagonistic activity is injectected 5 minutes before the intravenous injection of 1.25 mg/kg Win-55,212 a known cannabinoid-receptor agonist.
(§5) The hot plate analgesia is determined according to the method described in Woolfe D. et al. “The evaluation of analgesic action of pethidine hydrochloride (Demerol)”, J. Pharmacol. Exp. Ther. 80, 300-307, 1944.
(§6) The mice are placed on a hot plate (Harvard Analgesimeter) at 55±0.5° C. until they show a painful sensation by licking their paws or jumping and the time for these sensations to occur is recorded. This reading is considered the basal value (B). The maximum time limit the mice are allowed to remain on the hot plate in absence of any painful response is 40 seconds in order to prevent skin damage. This period is called the cut-off time (PC).
(§7) Fifteen minutes after the administration of the substance to be tested, the mice are again placed on the hot plate and the afore described procedure is repeated. This period is called the post-treatment reading (PT).
(§8) The degree of analgesia is calculated from the formula:
(§9) % MPE of Analgesia=(PT−B)/(PC−B)×100
(§10) Sedation and ataxia is determined according to the method described in Desmet L. K. C. et al. “Anticonvulsive properties of Cinarizine and Flunarizine in Rats and Mice”, Arzneim. -Forsch. (Frug Res) 25, 9, 1975.
(§11) The percentage of sedation is determined according to the formula:
(§12) % of sedation=arithmetic mean/3×100
(§13) Hypothermia is determined according to the method described in David R. Compton et. al. “In-vivo Characterization of a Specific Cannabinoid Receptor Antagonist (SR141716A) Inhibition of Tetrahydrocannbinol-induced Responses and Apparent Agonist Activity”, J. Pharmacol Exp Ther. 277, 2, 586-594, 1996.

[2] = tested on: cannabinoid receptors; assay: Mouse tetrad model, agonistic effect; format: in vivo, mice; conditions: 5 mg/kg i.v.; for Agonistic effect B: Hypothermia: unit assumed
From the text: as §1, §2, §3, §4
In order to determine the agonistic activty of the substance to be tested, the mice are injected intravenously with the substance to be tested or the vehicle alone. 15 minutes after injection, latency in hot plate analgesia is measured. Rectal temperature, sedation and catalepsy are measured 20 minutes after injection.
as §5, §6, §7, §8, §9, §10, §11, §12, §13

[3] = target: T1, CB2-Receptor (Homo sapiens, UniProt P34972); assay: In-vitro determination of affinity to CB2-receptor, radioligand [3H]-CP55940; format: binding
T1 construct: purchased Receptor Biology, Inc
T1 sequence (P34972 whole entry): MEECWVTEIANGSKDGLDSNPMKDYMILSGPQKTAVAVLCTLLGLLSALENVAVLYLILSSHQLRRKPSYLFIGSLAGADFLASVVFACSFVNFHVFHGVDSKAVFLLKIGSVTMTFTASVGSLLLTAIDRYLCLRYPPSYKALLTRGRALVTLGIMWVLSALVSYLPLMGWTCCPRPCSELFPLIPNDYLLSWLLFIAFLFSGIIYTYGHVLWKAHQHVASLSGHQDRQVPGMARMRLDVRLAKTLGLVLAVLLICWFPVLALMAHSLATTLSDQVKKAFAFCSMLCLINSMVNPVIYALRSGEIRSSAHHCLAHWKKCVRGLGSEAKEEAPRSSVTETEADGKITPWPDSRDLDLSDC
Protocol: Brockie et al., “Agonist-inverse agonist characterization at CB1 and CB2 cannabinoid receptors of L-759633, L759656 and AM630”, British Journal of Pharmacology, 126, 665-672, (1999), whereby the transfected human CB1 and CB2 receptors of Receptor Biology, Inc. are used. The radioligand used for both receptors is [^3H]-CP55940.
The affinity of the inventive substituted pyrazoline compounds to CB1/CB2 receptors was determined as described above.

[4] = In-vivo testing for antiobesic activity; conditions: rats
[5] = In-vivo testing for antidepressant activity, water despair test
Protocol: The in-vivo testing for antidepressant activity of the inventive pyrazoline compounds in the water despair test was carried out as described above.

SMILES | melting point [°C] | Antagonistic effect C: Catalepsy [1] [%] | Antagonistic effect D: Sedation [1] [%] | Antagonistic effect A: Hot-Plate test [1] [%] | Antagonistic effect B: Hypothermia [1] [%] | Agonistic effect A: Hot-Plate test [2] [%] | Agonistic effect C: Catalepsy [2] [%] | Agonistic effect D: Sedation [2] | Agonistic effect B: Hypothermia [2] [%] | Ki [3] [nM] | body weight ([4]; 10 mg/kg intraperitoneally daily over 14 days, FIG. 1) | food intake ([4]; 10 mg/kg intraperitoneally daily over 14 days, FIG. 2) | body weight effect after the treatment is ended ([4]; after end of 14 days of 10 mg/kg i.p. daily, FIG. 1) | immobility time [5] | struggling time [5]
O=C(C1=NN(c2ccc(Cl)cc2Cl)C(c2ccc(Cl)cc2)C1)N1CCCCC1 (stereo not shown) [Example 5, [5-(4-Chloro-phenyl)-1-(2,4-dichloro-phenyl)-4,5-dihydro-1H-pyrazol-3-yl]-piperidin-1-yl-methanone] | 105 to 110 | 20 | 20 | 50 | 40 | 0 | 0 | 0 | 50 | ~1000 |  |  |  |  | 
O=C(NN1CCCCC1)C1=NN(c2ccc(Cl)cc2Cl)C(c2ccc(Cl)cc2)C1 (stereo not shown) [Example 1, N-piperidinyl-5-(4-chlorophenyl)-1-(2,4-dichlorophenyl)-4,5-dihydro-1H-pyrazole-3-carboxamide] |  | 100 | 100 | 74 | 100 | 0 | 0 | 0 | 0 |  | lowered | reduction of food intake | also observed after the treatment is ended | positive effects | positive effects
CN1CCN(NC(=O)C2=NN(c3ccc(Cl)cc3Cl)C(c3ccc(Cl)cc3)C2)CC1.Cl (stereo not shown) | 150 to 155 |  |  |  |  |  |  |  |  |  |  |  |  |  | 
O=C(Nn1cnnc1)C1=NN(c2ccc(Cl)cc2Cl)C(c2ccc(Cl)cc2)C1 (stereo not shown) | 134 to 138 |  |  |  |  |  |  |  |  |  |  |  |  |  | 
